Values after ≈ are worked out from the molar mass of the structure shown. “Also recorded” adds a separate entry of the source. Read-outs that look alike come from different tables or passages of the source.
How the values were obtained:
Format in all cases: cell-based, human
[1] = test system: HeLa cells; assay: MTT assay, HeLa; settings: for IC50: Homo sapiens, HeLa, read-out: IC50 ± SD, HeLa; for IC50 / IC50 ± SD, HeLa: 24 h; for Selectivity index (SI), HeLa: SI = IC50 HaCaT/IC50 HeLa, from MTT results
Procedure: (§1) The human cervical (HeLa S3) and ovarian (SKOV-3) adenocarcinomas, acute human lymphoblastic leukaemia (MOLT-4) cell lines and human keratinocytes (HaCaT) were obtained from the American Type Culture Collection (ATCC, Manassas, VA, USA). […] All the media were supplemented with 10% (v/v) foetal bovine serum (FBS), 2 mM L-glutamine (except for McCoy’s 5 A), 100 units/mL of penicillin, 100 µg/mL of streptomycin (Sigma-Aldrich), and were kept at 37 °C in a humidified 5% CO2 incubator. The viability of all the cells was determined by 3-(4,5-dimethylthiazol-2-yl)-2,5-diphenyltetrazolium bromide (MTT) assay. […] The range of concentrations was selected experimentally to obtain symmetrical sigmoidal shape of dose-response curves generated by GraFit v. 7 (Erithacus Software, West Sussex, UK). […] Following treatment, the media with the extracts, fraction and compounds were removed and replaced with fresh media with MTT (0.5 mg/mL). After 3 h of incubation, the absorption of the formazan solution was measured at 570 nm with a plate reader (Epoch, BioTek, Winooski, VT, USA). The results are expressed as IC50 mean values (±SD, standard deviation) of at least two independent experiments, in six repetitions.

[2] = test system: HaCaT cells; assay: RTCA (xCELLigence) cell proliferation assay, HaCaT; settings: 24 h; for IC50: Homo sapiens, HaCaT, read-out: IC50 ± SD, HaCaT
Procedure: (§2) The human cervical (HeLa S3) and ovarian (SKOV-3) adenocarcinomas, acute human lymphoblastic leukaemia (MOLT-4) cell lines and human keratinocytes (HaCaT) were obtained from the American Type Culture Collection (ATCC, Manassas, VA, USA). The HeLa and HaCaT cells were cultured in Dulbecco’s Modified Eagle’s Medium (DMEM), SKOV-3 and MOLT-4 cells were cultured in McCoy’s 5 A and RPMI 1640 Media, respectively. All the media were supplemented with 10% (v/v) foetal bovine serum (FBS), 2 mM L-glutamine (except for McCoy’s 5 A), 100 units/mL of penicillin, 100 µg/mL of streptomycin (Sigma-Aldrich), and were kept at 37 °C in a humidified 5% CO2 incubator.
(§3) The xCELLigence Real-Time Cell Analyzer Dual Plate (RTCA DP, ACEA Biosciences, San Diego, CA, USA) was used for monitoring of viability of adherent cells (HeLa, SKOV-3 and HaCaT) treated with the extracts (A, B), fraction C and sapogenins for 24 h. The cells were seeded at a density of 2 × 10^4 cells/well into E-plate 16 (ACEA Biosciences). When the cells entered log phase, the extracts, fraction and steroidal saponins were added in the final concentration range of 5.0–120.0 µg/mL, 5.0–100.0 µg/mL, and 1.0–50.0 µg/mL, respectively. The range of concentrations was selected experimentally to obtain symmetrical sigmoidal shape of dose-response curves generated by RTCA software v. 1.2.1 (ACEA Biosciences). The maximal concentrations of the extract A, fraction and compounds solvents in the RTCA experiments were 4.0% (v/v) for methanol and 0.8% (v/v) for DMSO. To obtain viability profiles and calculate IC50 values, we used the RTCA software v. 1.2.1. All the experiments were performed in duplicate, in three independent repeats.

[3] = test system: HeLa cells; assay: RTCA (xCELLigence) cell proliferation assay, HeLa; settings: for IC50: Homo sapiens, HeLa, read-out: IC50 ± SD, HeLa; for Selectivity index (SI), HeLa: SI = IC50 HaCaT/IC50 HeLa, from RTCA results
Procedure: as §2, §3

[4] = test system: HaCaT cells; assay: MTT assay, HaCaT keratinocytes; settings: 24 h; for IC50: Homo sapiens, HaCaT, read-out: IC50 ± SD, HaCaT
Procedure: as §1

[5] = test system: SKOV-3 cells; assay: MTT assay, SKOV-3; settings: for IC50: Homo sapiens, read-out: IC50 ± SD, SKOV-3; for Selectivity index (SI), SKOV-3: SI = IC50 HaCaT/IC50 SKOV-3, from MTT results
Procedure: as §1

[6] = test system: SKOV-3, HeLa and MOLT-4 cell lines; assay: Cytotoxicity (MTT) on the tested cell lines, stated jointly; settings: for cytotoxic activity, in words: NCI guideline: cytotoxic if IC50 under 20–30 μg/mL; for IC50: Homo sapiens, read-out: IC50, tested cell lines
Procedure: The viability of all the cells was determined by 3-(4,5-dimethylthiazol-2-yl)-2,5-diphenyltetrazolium bromide (MTT) assay. […] The range of concentrations was selected experimentally to obtain symmetrical sigmoidal shape of dose-response curves generated by GraFit v. 7 (Erithacus Software, West Sussex, UK). […] Following treatment, the media with the extracts, fraction and compounds were removed and replaced with fresh media with MTT (0.5 mg/mL). After 3 h of incubation, the absorption of the formazan solution was measured at 570 nm with a plate reader (Epoch, BioTek, Winooski, VT, USA). The results are expressed as IC50 mean values (±SD, standard deviation) of at least two independent experiments, in six repetitions. To determine the cytotoxic selectivity of the extracts, fraction and compounds, the selectivity index (SI) was calculated according to the formula: SI = IC50^(non-cancer cells)/IC50^(cancer cells) (Table 1).

[7] = test system: SKOV-3 cells; assay: RTCA (xCELLigence) cell proliferation assay, SKOV-3; settings: for IC50: Homo sapiens, SK-OV-3, 24 h, read-out: IC50 ± SD, SKOV-3; for IC50 / IC50 ± SD, SKOV-3: RTCA, 24 h; for Selectivity index (SI), SKOV-3: SI = IC50 HaCaT/IC50 SKOV-3, from RTCA results
Procedure: as §2, §3

[8] = MTT, stated jointly for the tested cell lines

| Structure (SMILES) | IC50 ([1]; MTT) [µg/mL] | Selectivity index (SI), HeLa [1] | Selectivity index (SI), HeLa [3] | IC50 ([4]; MTT) [µg/mL] | IC50 ([5]; SK-OV-3, MTT, 24 h) [µg/mL] | Selectivity index (SI), SKOV-3 [5] | cytotoxic activity, in words ([6]; MTT) | Selectivity index (SI), SKOV-3 [7] | IC50 ± SD, SKOV-3 ([5]; MTT, 24 h) | IC50 ± SD, HeLa ([1]; MTT) [µg/mL] | IC50 ± SD, HaCaT ([4]; MTT) [µg/mL] | IC50, tested cell lines [6, 8] [µg/mL] | other results |
| --- | --- | --- | --- | --- | --- | --- | --- | --- | --- | --- | --- | --- | --- |
| C[C@@H]1CC[C@@]2(OC1)O[C@H]1C[C@H]3[C@@H]4CC=C5C[C@@H](O)CC[C@]5(C)[C@H]4CC[C@]3(C)[C@H]1[C@@H]2C [Diosgenin] | 16.3 ± 0.26 (≈ 39.3 µM) | 0.76 | 0.84 | 12.4 ± 0.5 (≈ 29.9 µM) | 19.3 ± 0.97 (≈ 46.5 µM) | 0.64 | cytotoxic; also recorded: active | 1.38 |  |  |  |  | IC50 [2]: 23.4 ± 0.42 µg/mL (≈ 56.4 µM); IC50 ([3]; RTCA, 24 h): 28 ± 2.4 µg/mL (≈ 67.5 µM); IC50 [7]: ~20 µg/mL (≈ 48.2 µM); IC50 ± SD, SKOV-3 [7]: 16.90 ± 2.89 µg/mL (≈ 40.8 µM) |
| O=c1cc(-c2ccc(O)c(O)c2)oc2cc(O)c([C@@H]3O[C@H](CO)[C@@H](O)[C@H](O)[C@H]3O)c(O)c12 [Isoorientin] | > 50 |  |  | > 50 | > 50 |  | inactive |  |  |  |  |  | IC50 [6, 8]: > 50 µg/mL |
| O=c1cc(-c2ccc(O)c(O)c2)oc2c([C@@H]3O[C@H](CO)[C@@H](O)[C@H](O)[C@H]3O)c(O)cc(O)c12 [Orientin] |  |  |  |  |  |  | inactive |  |  |  |  |  | IC50 [1]: > 50 µg/mL; IC50 [4]: > 50 µg/mL; IC50 ([5]; SK-OV-3, 24 h): > 50 µg/mL; IC50 [6]: > 50 µg/mL |
| C[C@@H]1CC[C@@]2(OC1)O[C@H]1C[C@H]3[C@@H]4CC[C@H]5C[C@@H](O)CC[C@]5(C)[C@H]4CC[C@]3(C)[C@H]1[C@@H]2C [Tigogenin] | 35.6 ± 3.69 (≈ 85.4 µM) | 0.87 | 1.30 | 31.1 ± 2.31 (≈ 74.6 µM) | > 50 | < 0.62 | active | 1.16 | lowest activity |  |  |  | IC50 [2]: 32.7 ± 0.07 µg/mL (≈ 78.5 µM); IC50 ([3]; RTCA, 24 h): 25.1 ± 0.12 µg/mL (≈ 60.2 µM); IC50 [7]: 28.3 ± 3.46 µg/mL (≈ 67.9 µM) |
| C[n+]1cccc(C(=O)[O-])c1 [Trigonelline] | > 50 |  |  | > 50 | > 50 |  |  |  |  |  |  |  | IC50 [6, 8]: > 50 µg/mL |
| O=c1cc(-c2ccc(O)cc2)oc2c([C@@H]3O[C@H](CO)[C@@H](O)[C@H](O)[C@H]3O)c(O)c([C@@H]3OC[C@@H](O)[C@H](O)[C@H]3O)c(O)c12 [Vicenin-1] |  |  |  |  |  |  |  |  | >50 µg/mL | >50 | >50 | > 50 |  |
| O=c1cc(-c2ccc(O)cc2)oc2c([C@@H]3O[C@H](CO)[C@@H](O)[C@H](O)[C@H]3O)c(O)c([C@@H]3O[C@H](CO)[C@@H](O)[C@H](O)[C@H]3O)c(O)c12 [Vicenin-2] |  |  |  |  |  |  | inactive |  | >50 µg/mL | >50 | >50 | > 50 |  |
| O=c1cc(-c2ccc(O)cc2)oc2c([C@@H]3OC[C@@H](O)[C@H](O)[C@H]3O)c(O)c([C@@H]3O[C@H](CO)[C@@H](O)[C@H](O)[C@H]3O)c(O)c12 [Vicenin-3] |  |  |  |  |  |  | inactive |  | >50 µg/mL | >50 | >50 | > 50 |  |
| O=c1cc(-c2ccc(O)cc2)oc2c([C@@H]3O[C@H](CO)[C@@H](O)[C@H](O)[C@H]3O)c(O)cc(O)c12 [Vitexin] |  |  |  |  |  |  | inactive |  |  |  |  |  | IC50 [4]: > 50 µg/mL; IC50 ([5]; SK-OV-3, 24 h): > 50 µg/mL; IC50 [6]: > 50 µg/mL |
| C[C@H]1CC[C@@]2(OC1)O[C@H]1C[C@H]3[C@@H]4CC=C5C[C@@H](O)CC[C@]5(C)[C@H]4CC[C@]3(C)[C@H]1[C@@H]2C [Yamogenin] |  | 0.59 | 0.84 |  |  | 0.58 | cytotoxic; also recorded: active | 0.69 | 16.70 ± 0.08 µg/mL (≈ 40.3 µM) | 16.5 ± 0.59 (≈ 39.8 µM) | 9.70 ± 0.91 (≈ 23.4 µM) |  | IC50 ± SD, HaCaT [2]: 16.40 ± 1.41 µg/mL (≈ 39.6 µM); IC50 ± SD, HeLa ([3]; RTCA, 24 h): 19.60 ± 1.41 µg/mL (≈ 47.3 µM); IC50 ± SD, SKOV-3 [7]: 23.90 ± 1.48 µg/mL (≈ 57.6 µM); IC50 ± SD, SKOV-3 ([7]; listed as yamogenin): about 20 μg/mL |

Reference: article PMC8057092, “Cytotoxic activity of standardized extracts, a fraction, and individual secondary metabolites from fenugreek seeds against SKOV-3, HeLa and MOLT-4 cell lines” (Pharmaceutical Biology, 2021)
